Test results taken from patent US12729377B2, “RNAi agents and compositions for inhibiting expression of angiopoietin-like 3 (ANGPTL3), and methods of use” (Arrowhead Pharmaceuticals, Inc., priority 2017, dated 2026).
In the oligonucleotide strings, read from the 5' end, every base follows the letter of its sugar. An asterisk marks phosphorothioate; unmarked linkages are phosphodiester. Other units and linkages are bracketed, terminal groups are in braces. A string of capitals states the bases alone. {NAG37} = tridentate N-acetyl-galactosamine targeting ligand, structure (NAG37)s; [invAb] = inverted abasic unit; m = 2'-O-methyl; f = 2'-fluoro

How the values were obtained:
ANGPTL3 gene [1] = assay: Example 4: serum HDL in mice; assay type: in vivo, C57bl/6 mice
Experimental: (§1) To assess the in vivo activity of ANGPTL3 RNAi agents that are designed to target additional positions on the ANGPTL3 gene, six- to eight-week-old female C57bl/6 mice were used. Pre-dose serum samples were taken at day −1 after a four hour fast. At day 1, each mouse was given a single subcutaneous administration of 200 μl containing either 1 mg/kg (mpk) or 0.5 mg/kg (mpk) of an ANGPTL3 RNAi agent in D5W (dextrose in 5% water), or control (D5W) with no RNAi agent, according to the dosing groups recited in Table 17.
(§2) Each of the RNAi agents included a modified sequence and an N-acetyl-galactosamine-containing targeting ligand conjugated to the 5′ terminal end of the sense strand. (See Tables 3, 4, and 5 for modified sequences and targeting ligand structures). The injections were performed between the skin and muscle (i.e. subcutaneous injections) into the loose skin over the neck and shoulder area. Three (3) mice in each group were tested (n=3). Serum was collected on days 8, 15, 22, 29, and day 43 (Groups 1-3, 9, and 11-13 only). Mice were fasted for four hours prior to each collection. ANGPTL3 protein levels in serum were measured by ELISA assay (R&D Systems), according to the manufacturer's recommendations. Triglycerides, high-density lipoprotein (HDL), and total cholesterol in serum were measured on a Cobas® Integra 400 (Roche Diagnostics), according to the manufacturer's recommendations.
(§3) The ANGPTL3 protein levels, triglyceride levels, HDL levels, and total cholesterol levels for each animal were normalized. For normalization, the level of ANGPTL3 protein, triglyceride, HDL, and total cholesterol, respectively, for each animal at a time point, was divided by the pre-treatment level of expression in that animal (in this case at day −1) to determine the ratio of expression “normalized to pre-treatment.” Expression at a specific time point was then normalized to the D5W control group by dividing the “normalized to pre-treatment” ratio for an individual animal by the mean “normalized to pretreatment” ratio of all mice in the D5W control group.

ANGPTL3 gene [2] = assay: Example 7: serum LDL in mice; assay type: in vivo; design: key: ratio: (level/pre-treatment day -1 level) ÷ mean of D5W control group; conditions: 0.5 mg/kg single SC injection day 1, female C57bl/6 mice, n=3, ratio to D5W control
In short: (§4)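 Female C57bl/6 mice (6–8 weeks, n=3) received a single subcutaneous dose of 0.5 mg/kg GalNAc-conjugated RNAi agent or D5W vehicle. Serum was taken after a 4 h fast at day −1 and days 8, 15, 22 and 29. ANGPTL3 was measured by ELISA and lipids by clinical analyzer, each normalised to the animal's pre-dose level and then to the D5W group mean.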

ANGPTL3 protein [3] = assay: Example 4: serum ANGPTL3 protein by ELISA in mice; assay type: in vivo, C57bl/6 mice; conditions: serum, female C57bl/6 mice
Experimental: as §1, §2, §3

ANGPTL3 gene [4] = assay: Example 7: serum triglycerides in mice; assay type: in vivo, C57bl/6 mice; design: key: ratio: (level/pre-treatment day -1 level) ÷ mean of D5W control group
In short: as §4

ANGPTL3 gene [5] = assay: Example 4: serum triglycerides in mice; assay type: in vivo
Experimental: as §1, §2, §3

ANGPTL3 protein [6] = assay: Example 7: serum ANGPTL3 protein by ELISA in mice; assay type: in vivo, C57bl/6 mice; design: key: ratio: (level/pre-treatment day -1 level) ÷ mean of D5W control group
In short: as §4

ANGPTL3 gene [7] = assay: Example 7: serum total cholesterol in mice; assay type: in vivo, C57bl/6 mice; design: key: ratio: (level/pre-treatment day -1 level) ÷ mean of D5W control group
In short: as §4

ANGPTL3 gene [8] = assay: Example 7: serum HDL in mice; assay type: in vivo; design: key: ratio: (level/pre-treatment day -1 level) ÷ mean of D5W control group; conditions: 0.5 mg/kg single SC injection day 1, female C57bl/6 mice, n=3, ratio to D5W control
In short: as §4

[9] = Day 8, 0.5 mg/kg single SC injection on day 1, n=3
[10] = Day 15, 0.5 mg/kg single SC injection on day 1, n=3
[11] = Day 22, 0.5 mg/kg single SC injection on day 1, n=3
[12] = Day 29, 0.5 mg/kg single SC injection on day 1, n=3

## AD05308: RNAi agent duplex: antisense AM07003-AS, sense AM07002-SS (chain 1 mU*fG*mU*fUmGfAmAfUmUfAmAfUmGfUmCfCmAfUmGfG*mA; chain 2 {NAG37}*[invAb]*mUmCmCmAmUmGmGmAfCfAfUmUmAmAmUmUmCmAmAmCmA*[invAb])
ANGPTL3 gene [1]; [9]
  Avg HDL, normalized to pre-treatment and control: 1.007
ANGPTL3 gene [1]; Day 8, 1.0 mg/kg single SC injection on day 1, n=3
  Avg HDL, normalized to pre-treatment and control: 0.904
ANGPTL3 gene [1]; [10]
  Avg HDL, normalized to pre-treatment and control: 0.770
ANGPTL3 gene [1]; Day 15, 1.0 mg/kg single SC injection on day 1, n=3
  Avg HDL, normalized to pre-treatment and control: 0.801
ANGPTL3 gene [1]; [11]
  Avg HDL, normalized to pre-treatment and control: 0.921
ANGPTL3 gene [1]; Day 22, 1.0 mg/kg single SC injection on day 1, n=3
  Avg HDL, normalized to pre-treatment and control: 0.728
ANGPTL3 gene [1]; [12]
  Avg HDL, normalized to pre-treatment and control: 0.934
ANGPTL3 gene [1]; Day 29, 1.0 mg/kg single SC injection on day 1, n=3
  Avg HDL, normalized to pre-treatment and control: 0.824
ANGPTL3 gene [1]; Day 43, 0.5 mg/kg single SC injection on day 1, n=3
  Avg HDL, normalized to pre-treatment and control: 1.101
ANGPTL3 gene [1]; Day 43, 1.0 mg/kg single SC injection on day 1, n=3
  Avg HDL, normalized to pre-treatment and control: 1.096
ANGPTL3 gene [2]; Day 8
  Avg LDL, normalized to pre-treatment and control: 0.710
ANGPTL3 gene [2]; Day 15
  Avg LDL, normalized to pre-treatment and control: 0.801
ANGPTL3 gene [2]; Day 22
  Avg LDL, normalized to pre-treatment and control: 0.933
ANGPTL3 gene [2]; Day 29
  Avg LDL, normalized to pre-treatment and control: 1.047
ANGPTL3 protein [3]; Day 8, 0.5 mg/kg single subcutaneous dose on day 1
  Avg ANGPTL3 (Average ANGPTL3 Protein Normalized to Pre-Treatment and Control): 0.340
ANGPTL3 protein [3]; Day 8, 1.0 mg/kg single subcutaneous dose on day 1
  Avg ANGPTL3 (Average ANGPTL3 Protein Normalized to Pre-Treatment and Control): 0.299
ANGPTL3 protein [3]; Day 15, 0.5 mg/kg single subcutaneous dose on day 1
  Avg ANGPTL3 (Average ANGPTL3 Protein Normalized to Pre-Treatment and Control): 0.310
ANGPTL3 protein [3]; Day 15, 1.0 mg/kg single subcutaneous dose on day 1
  Avg ANGPTL3 (Average ANGPTL3 Protein Normalized to Pre-Treatment and Control): 0.298
ANGPTL3 protein [3]; Day 22, 0.5 mg/kg single subcutaneous dose on day 1
  Avg ANGPTL3 (Average ANGPTL3 Protein Normalized to Pre-Treatment and Control): 0.319
ANGPTL3 protein [3]; Day 22, 1.0 mg/kg single subcutaneous dose on day 1
  Avg ANGPTL3 (Average ANGPTL3 Protein Normalized to Pre-Treatment and Control): 0.252
ANGPTL3 protein [3]; Day 29, 0.5 mg/kg single subcutaneous dose on day 1
  Avg ANGPTL3 (Average ANGPTL3 Protein Normalized to Pre-Treatment and Control): 0.345
ANGPTL3 protein [3]; Day 29, 1.0 mg/kg single subcutaneous dose on day 1
  Avg ANGPTL3 (Average ANGPTL3 Protein Normalized to Pre-Treatment and Control): 0.322
ANGPTL3 protein [3]; Day 43, 0.5 mg/kg single subcutaneous dose on day 1
  Avg ANGPTL3 (Average ANGPTL3 Protein Normalized to Pre-Treatment and Control): 0.582
ANGPTL3 protein [3]; Day 43, 1.0 mg/kg single subcutaneous dose on day 1
  Avg ANGPTL3 (Average ANGPTL3 Protein Normalized to Pre-Treatment and Control): 0.643
ANGPTL3 gene [4]; [9]
  Avg TG, normalized to pre-treatment and control: 0.836
ANGPTL3 gene [4]; [10]
  Avg TG, normalized to pre-treatment and control: 0.755
ANGPTL3 gene [4]; [11]
  Avg TG, normalized to pre-treatment and control: 0.839
ANGPTL3 gene [4]; [12]
  Avg TG, normalized to pre-treatment and control: 0.705
ANGPTL3 gene [5]; Day 8, 0.5 mg/kg single subcutaneous dose on day 1, female C57bl/6 mice
  Avg TG (Average Triglycerides Normalized to Pre-Treatment and Control): 1.330
ANGPTL3 gene [5]; Day 8, 1.0 mg/kg single subcutaneous dose on day 1, female C57bl/6 mice
  Avg TG (Average Triglycerides Normalized to Pre-Treatment and Control): 0.749
ANGPTL3 gene [5]; Day 15, 0.5 mg/kg single subcutaneous dose on day 1, female C57bl/6 mice
  Avg TG (Average Triglycerides Normalized to Pre-Treatment and Control): 1.598
ANGPTL3 gene [5]; Day 15, 1.0 mg/kg single subcutaneous dose on day 1, female C57bl/6 mice
  Avg TG (Average Triglycerides Normalized to Pre-Treatment and Control): 1.164
ANGPTL3 gene [5]; Day 22, 0.5 mg/kg single subcutaneous dose on day 1, female C57bl/6 mice
  Avg TG (Average Triglycerides Normalized to Pre-Treatment and Control): 1.732
ANGPTL3 gene [5]; Day 22, 1.0 mg/kg single subcutaneous dose on day 1, female C57bl/6 mice
  Avg TG (Average Triglycerides Normalized to Pre-Treatment and Control): 1.152
ANGPTL3 gene [5]; Day 29, 0.5 mg/kg single subcutaneous dose on day 1, female C57bl/6 mice
  Avg TG (Average Triglycerides Normalized to Pre-Treatment and Control): 1.446
ANGPTL3 gene [5]; Day 29, 1.0 mg/kg single subcutaneous dose on day 1, female C57bl/6 mice
  Avg TG (Average Triglycerides Normalized to Pre-Treatment and Control): 1.021
ANGPTL3 gene [5]; Day 43, 0.5 mg/kg single subcutaneous dose on day 1, female C57bl/6 mice
  Avg TG (Average Triglycerides Normalized to Pre-Treatment and Control): 1.547
ANGPTL3 gene [5]; Day 43, 1.0 mg/kg single subcutaneous dose on day 1, female C57bl/6 mice
  Avg TG (Average Triglycerides Normalized to Pre-Treatment and Control): 0.994
ANGPTL3 protein [6]; [9]
  Avg ANGPTL3, normalized to pre-treatment and control: 0.447
ANGPTL3 protein [6]; [10]
  Avg ANGPTL3, normalized to pre-treatment and control: 0.388
ANGPTL3 protein [6]; [11]
  Avg ANGPTL3, normalized to pre-treatment and control: 0.440
ANGPTL3 protein [6]; [12]
  Avg ANGPTL3, normalized to pre-treatment and control: 0.523
ANGPTL3 gene [7]; [9]
  Avg Total Chol, normalized to pre-treatment and control: 0.756
ANGPTL3 gene [7]; [10]
  Avg Total Chol, normalized to pre-treatment and control: 0.814
ANGPTL3 gene [7]; [11]
  Avg Total Chol, normalized to pre-treatment and control: 0.896
ANGPTL3 gene [7]; [12]
  Avg Total Chol, normalized to pre-treatment and control: 0.927
ANGPTL3 gene [8]; Day 8
  Avg HDL, normalized to pre-treatment and control: 0.750
ANGPTL3 gene [8]; Day 15
  Avg HDL, normalized to pre-treatment and control: 0.791
ANGPTL3 gene [8]; Day 22
  Avg HDL, normalized to pre-treatment and control: 0.846
ANGPTL3 gene [8]; Day 29
  Avg HDL, normalized to pre-treatment and control: 0.905
